# Experimental data from patent US11702440B2, “Pharmaceutical polymorphs of Molnupiravir” (OPTIMUS DRUGS (P) LTD, priority 2021, dated 2023).
# Legend:
# [1] = In-vitro dissolution study of Molnupiravir Capsules; type: physicochemical; details: 900 ml 0.1 N HCl, paddle 50 RPM
# Method: Dissolution study of test product Molnupiravir Capsules 200 mg, 400 mg 800 mg was performed in order to understand % dissolution in release dissolution media. The dissolution media used for the test is 900 ml of 0.1 NHCl at 50 RPM with paddle.
# [2] = First-in-human phase 1 single and multiple ascending dose pharmacokinetics in healthy volunteers; type: in vivo
# Method: Single and multiple doses of Molnupiravir were evaluated in this first-in-human, phase 1, […] randomized, double-blind, placebo-controlled study in healthy volunteers, which included […] evaluation of the effect of food on pharmacokinetics. Eligible subjects were randomized in a 3:1 ratio to either study drug or placebo in the single- and multiple-ascending-dose parts of the study. Each cohort comprised 8 subjects, with single oral doses of 50 to 1600 mg administered in the single-ascending-dose part and twice-daily (BID) […] doses of 50 to 800 mg administered for 5.5 days in the multiple-ascending-dose part. Subjects were followed for 14 days following completion of dosing for assessments of safety, tolerability, and pharmacokinetics. Subjects in the food-effect evaluation were randomized in a 1:1 ratio to either 200 mg Molnupiravir in the fed state followed by 200 mg Molnupiravir in the fasted state, or vice versa, with a 14-day washout period between doses. A capsule formulation was used in all parts of the study, with the exception of single ascending doses ≤800 mg, where an oral solution formulation was used.
# [3] = test system: coronaviruses including SARS, MERS and SARS-CoV-2; details: cited from earlier work
# SARS-CoV-2 = details: found in March 2020; cited from earlier work
smiles,measurement,setting,value
CC(C)C(=O)OC[C@H]1O[C@@H](n2ccc(NO)nc2=O)[C@H](O)[C@@H]1O [Molnupiravir],% Drug release of Molnupiravir,"[1]; 200 mg capsules, 5 min",85%
same,% Drug release of Molnupiravir,"[1]; 200 mg capsules, 10 min",97%
same,% Drug release of Molnupiravir,"[1]; 200 mg capsules, 15 min",97%
same,% Drug release of Molnupiravir,"[1]; 200 mg capsules, 20 min",102%
same,% Drug release of Molnupiravir,"[1]; 200 mg capsules, 30 min",103%
same,% Drug release of Molnupiravir,"[1]; 200 mg capsules, 45 min",102%
same,% Drug release of Molnupiravir,"[1]; 400 mg capsules, 5 min",86%
same,% Drug release of Molnupiravir,"[1]; 400 mg capsules, 10 min",90%
same,% Drug release of Molnupiravir,"[1]; 400 mg capsules, 15 min",93%
same,% Drug release of Molnupiravir,"[1]; 400 mg capsules, 20 min",97%
same,% Drug release of Molnupiravir,"[1]; 400 mg capsules, 30 min",97%
same,% Drug release of Molnupiravir,"[1]; 400 mg capsules, 45 min",97%
same,% Drug release of Molnupiravir,"[1]; 800 mg capsules, 5 min",84%
same,% Drug release of Molnupiravir,"[1]; 800 mg capsules, 10 min",95%
same,% Drug release of Molnupiravir,"[1]; 800 mg capsules, 15 min",97%
same,% Drug release of Molnupiravir,"[1]; 800 mg capsules, 20 min",99%
same,% Drug release of Molnupiravir,"[1]; 800 mg capsules, 30 min",101%
same,% Drug release of Molnupiravir,"[1]; 800 mg capsules, 45 min",101%
same,mean AUCinf increase with dose,"[2]; Day 1, power model, oral, lower bound of 90% CI slightly above unity",approximately dose-proportional
same,mean Cmax increase with dose,"[2]; Day 1, power model, oral, upper bound of 90% CI slightly below unity",approximately dose-proportional
same,mean Cmax increase with dose,"[2]; Day 6, BID oral dosing, 90% CI containing unity",dose proportional
same,mean AUCτ increase with dose,"[2]; Day 6, BID oral dosing, lower bound of 90% CI slightly above unity",approximately dose-proportional
same,activity against coronaviruses,[3],Activity has also been demonstrated
same,activity against SARS-CoV-2,SARS-CoV-2,active
